pIC50: −log10 of the molar value. Converted amounts (≈) assume the structure as drawn. Like-named read-outs stand apart in the source and are kept apart here.
Experiments:
[1] = In vitro clearance using human liver microsomes; type: in vitro ADME; settings: human liver microsomes 0.5 mg/ml, 1 μM compound, 37° C., 0-30 min
Description: These experiments were performed at Nikem Research (Via Zambeletti 25; Baranzate, Milan, Italy). Test compounds in duplicate at the final concentration of 1 μM were dissolved in DMSO and pre-incubated for 10 min at 37° C. in phosphate buffer pH 7.4, 3 mM MgCl2, with human liver microsomes at the final concentration of 0.5 mg/ml. After the pre-incubation period, reaction was started by adding the cofactor mixture (NADP, Glc6P, G6P-DH); samples were taken at time 0, 5, 10, 15, 20 and 30 min and added to acetonitrile to quench the metabolic reaction, centrifuged and supernatant analysed and quantified by HPLC/MS. A control sample without cofactors was always added in order to check the chemical stability of test compounds. 7-ethoxycoumarin was added as reference standard. A fixed concentration of verapamil was added in every sample as internal standard for HPLC/MS. The concentration of the remaining compound at different times was determined by HPLC/MS. The rate constant, k (min^−1) derived for the exponential decay equation (peak area vs time) was used to calculate the rate of intrinsic clearance (Cli) of the compounds using the following equations: Cli (μl/min/mg compound)=k×V; where: V (μl/mg compound)=incubation volume/mg compound added. In table 3 the clearance (in vitro metabolic stability) classification was as follows: Cli<10=compound stable; Cli between 10 and 60=low metabolism; Cli between 60 and 600=medium metabolism Cli>600=high metabolism.

[2] = Solubility and solubility-range determination in 50 mM phosphate buffer at different pH; type: physicochemical; settings: aqueous buffer, kinetic from dmso stock, 1% DMSO, 23° C., read-out: Solubility or solubility range
Description: The compounds were dissolved in DMSO at a concentration of 20 mg/ml. These stock solutions were further diluted 1:1 with DMSO (50 μl solution+50 μl DMSO) in seven steps. Subsequently, these solutions were diluted 1:100 (5 μl DMSO-stock+495 μl 50 mM phosphate buffer) in all four pH buffers (respectively: pH=4; pH=6; pH=7.4; pH=9) resulting in a final DMSO concentration of 1% in the buffers. These dilutions were vigorously mixed and transferred into 96-well reading plate. The plates were incubated in a shaker (600 rpm) at 23° C. for 24 hours. After that, the contents of the wells were mixed with a pipette and optical density (OD) was recorded at wavelengths of 550 nm; 600 nm; 650 nm and 700 nm in the Tecan Sunrise plate reader. The cut-off OD sum for an undissolved concentration of a compound was defined as follows: Cut off OD sum=mean blank OD+0.050 OD. For the determination of the solubility range, the following rule was applied: OD>cut off=>compound not dissolved at this concentration OD<cut-off=>compound dissolved at this concentration For the determination of the solubility, a titration curve (OD/concentration) was prepared and the concentrations were determined based on the measured OD of the mixture supernatant after centrifugation. The solubility values are given in μg/ml (table 3).

[3] = system: multiresistant Dd2 strain of Plasmodium falciparum; experiment: Antiplasmodial activity against Dd2 strain of Plasmodium falciparum ([8-3H]hypoxanthine incorporation); type: cell-based; settings: 66 h, P. falciparum Dd2, 48 h + 18 h with [8-3H]hypoxanthine, 50% parasite growth inhibition, read-out: Antiplasmodia activity (IC50 class)
How it was run: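 Dd2 parasites at 0.3% parasitaemia and 2.5% haematocrit in RPMI 1640 with 10% human serum were exposed to 0.001–100 μM compound for 48 h. [8-3H]hypoxanthine was then added for a further 18 h and incorporation counted by scintillation. IC50 was fitted as 50% growth inhibition.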

SMILES | solubility at 24 h ([2]; pH 4, 50 mM phosphate buffer) [µg/mL] | solubility at 24 h ([2]; pH 6, 50 mM phosphate buffer) [µg/mL] | solubility at 24 h ([2]; pH 7.4, 50 mM phosphate buffer) [µg/mL] | solubility at 24 h ([2]; pH 9, 50 mM phosphate buffer) [µg/mL] | In vitro metabolism as determined from Cli [1] | pIC50 [3]
N=C(c1cccc(NC(=O)Nc2ccc(S(=O)(=O)NCc3ccc(S(N)(=O)=O)cc3)cc2)c1)N1CCNCC1 [Compound 52, 4-(3-(3-(imino(piperazin-1-yl)methyl)phenyl)ureido)-N-(4-sulfamoylbenzyl)benzenesulfonamide] | > 200 | > 200 | > 200 | > 200 | low (Cli between 10 and 60=low metabolism) | 6.70 to 7.70
COC(=O)N1CCN(C(=N)c2cccc(NC(=O)Nc3ccc(S(=O)(=O)NCc4ccc(S(N)(=O)=O)cc4)cc3)c2)CC1 [Compound 60, methyl 4-(imino(3-(3-(4-(N-(4-sulfamoylbenzyl)sulfamoyl)phenyl)ureido)phenyl)methyl)piperazine-1-carboxylate] | 1480 (≈ 2350 µM) | 1290 (≈ 2040 µM) | 763 (≈ 1210 µM) | 456 (≈ 724 µM) | medium (Cli between 60 and 600=medium metabolism) | > 7.70
N=C(c1cccc(NC(=O)Nc2ccc(S(=O)(=O)NCc3ccc(S(N)(=O)=O)cc3)cc2)c1)N1CCN(CC2CC2)CC1 [Compound 66, 4-(3-(3-((4-(cyclopropylmethyl)piperazin-1-yl)(imino)methyl)phenyl)ureido)-N-(4-sulfamoylbenzyl)benzene sulfonamide] | – | – | – | – | medium (Cli between 60 and 600=medium metabolism) | > 7.70
COCCN1CCN(C(=N)c2cccc(NC(=O)Nc3ccc(S(=O)(=O)NCc4ccc(S(N)(=O)=O)cc4)cc3)c2)CC1 [Compound 69, 4-(3-(3-(imino(4-(2-methoxyethyl)piperazin-1-yl)methyl)phenyl)ureido)-N-(4-sulfamoylbenzyl)benzene sulfonamide] | – | – | – | – | medium (Cli between 60 and 600=medium metabolism) | 6.70 to 7.70
CCCCN1CCN(C(=N)c2cccc(NC(=O)Nc3ccc(S(=O)(=O)NCc4ccc(S(N)(=O)=O)s4)cc3)c2)CC1 [Compound 70, 5-((4-(3-(3-((4-butylpiperazin-1-yl)(imino)methyl)phenyl)ureido)phenylsulfonamido)methyl)thiophene-2-sulfonamide] | – | – | – | – | medium (Cli between 60 and 600=medium metabolism) | 6.70 to 7.70

Second part, led by results:

solubility at 24 h ([2]; pH 4, 50 mM phosphate buffer) [µg/mL] | solubility at 24 h ([2]; pH 6, 50 mM phosphate buffer) [µg/mL] | solubility at 24 h ([2]; pH 7.4, 50 mM phosphate buffer) [µg/mL] | solubility at 24 h ([2]; pH 9, 50 mM phosphate buffer) [µg/mL] | SMILES | In vitro metabolism as determined from Cli [1] | pIC50 [3]
960 (≈ 1530 µM) | 960 (≈ 1530 µM) | 750 (≈ 1190 µM) | 540 (≈ 860 µM) | CCCCN1CCN(C(=N)c2cccc(NC(=O)Nc3ccc(S(=O)(=O)NCc4ccc(S(N)(=O)=O)cc4)cc3)c2)CC1 [Compound 34, 4-(3-(3-((4-butylpiperazin-1-yl)(imino)methyl)phenyl)ureido)-N-(4-sulfamoylbenzyl)benzenesulfonamide] | medium (Cli between 60 and 600=medium metabolism) | > 7.70
> 200 | > 200 | > 200 | > 200 | CCCN1CCN(C(=N)c2cccc(NC(=O)Nc3ccc(S(=O)(=O)NCc4ccc(S(N)(=O)=O)cc4)cc3)c2)CC1 [Compound 38, 4-(3-(3-(imino(4-propylpiperazin-1-yl)methyl)phenyl)ureido)-N-(4-sulfamoylbenzyl)benzenesulfonamide] | medium (Cli between 60 and 600=medium metabolism) | > 7.70
> 200 | > 200 | > 200 | > 200 | CCC(=O)N1CCN(C(=N)c2cccc(NC(=O)Nc3ccc(S(=O)(=O)NCc4ccc(S(N)(=O)=O)cc4)cc3)c2)CC1 [Compound 58, 4-(3-(3-(imino(4-propionylpiperazin-1-yl)methyl)phenyl)ureido)-N-(4-sulfamoylbenzyl)benzenesulfonamide] | low (Cli between 10 and 60=low metabolism) | > 7.70
